# Assay results published in ChEMBL document CHEMBL1765084, “Pyrimidine-2,4,6-trione derivatives and their inhibition of mutant SOD1-dependent protein aggregation. Toward a treatment for amyotrophic lateral sclerosis” (J Med Chem, 2011).
# The source made the active and inactive calls. The calls are words filed in the database; no cut-off is given here.
# Assays:
# [1] = system: PC-12; test: Cytoprotection against SOD1 G93A mutant induced cytotoxicity in rat PC12 cells assessed as reduction of protein aggregates by fluorescent assay; assay type: functional, cell-based
# [2] = system: PC-12; test: Cytoprotection against SOD1 G93A mutant induced cytotoxicity in rat PC12 cells assessed as reduction of protein aggregates at 1 uM by fluorescent assay; assay type: functional, cell-based
# [3] = system: Rattus norvegicus; test: Oral bioavailability in Sprague-Dawley rat at 1 mg/kg; assay type: ADME, organism-based; settings: in vivo
# [4] = target: T1, Estrogen receptor (Homo sapiens) (UniProt P03372); test: Inhibition of ER alpha receptor at 10 uM by radioligand binding assay
# T1 sequence (whole entry): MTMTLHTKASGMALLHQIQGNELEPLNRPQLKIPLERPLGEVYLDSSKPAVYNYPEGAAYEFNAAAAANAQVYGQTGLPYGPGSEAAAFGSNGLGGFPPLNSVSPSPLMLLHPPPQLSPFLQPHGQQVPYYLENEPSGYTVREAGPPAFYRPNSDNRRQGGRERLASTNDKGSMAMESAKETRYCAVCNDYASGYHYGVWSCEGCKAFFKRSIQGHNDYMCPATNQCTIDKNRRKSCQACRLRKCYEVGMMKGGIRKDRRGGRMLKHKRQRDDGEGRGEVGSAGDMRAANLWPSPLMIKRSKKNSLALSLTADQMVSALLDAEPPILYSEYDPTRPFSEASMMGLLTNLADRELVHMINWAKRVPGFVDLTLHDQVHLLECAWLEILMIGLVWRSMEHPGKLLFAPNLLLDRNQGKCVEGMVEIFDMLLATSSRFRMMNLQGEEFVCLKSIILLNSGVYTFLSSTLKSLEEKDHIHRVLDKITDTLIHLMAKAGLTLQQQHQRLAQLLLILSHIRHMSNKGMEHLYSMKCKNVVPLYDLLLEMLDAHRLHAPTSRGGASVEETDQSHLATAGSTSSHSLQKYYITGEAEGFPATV
# [5] = system: Caco-2; test: Apparent Permeability across basolateral to apical side in human Caco2 cells at 50 uM after 2 hrs; settings: caco-2, 2 h
# [6] = target: D(3) dopamine receptor (Homo sapiens) (UniProt P35462); test: Inhibition of dopamine D3 receptor at 10 uM by radioligand binding assay
# D(3) dopamine receptor (Homo sapiens), sequence (P35462 whole entry): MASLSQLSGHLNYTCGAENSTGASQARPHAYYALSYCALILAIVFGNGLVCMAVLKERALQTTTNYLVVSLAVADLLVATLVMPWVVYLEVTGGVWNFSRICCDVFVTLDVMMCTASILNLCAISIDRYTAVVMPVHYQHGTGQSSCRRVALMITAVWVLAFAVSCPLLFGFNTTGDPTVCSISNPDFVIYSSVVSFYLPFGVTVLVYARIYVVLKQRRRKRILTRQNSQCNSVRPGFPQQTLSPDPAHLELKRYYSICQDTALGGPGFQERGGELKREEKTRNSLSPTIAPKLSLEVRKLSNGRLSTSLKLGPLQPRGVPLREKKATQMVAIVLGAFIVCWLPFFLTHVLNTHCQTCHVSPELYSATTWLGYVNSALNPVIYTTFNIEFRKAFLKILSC
# [7] = system: Rattus norvegicus; test: Half life in Sprague-Dawley rat at 1 mg/kg, iv; assay type: ADME, organism-based; set-up: dose 1 mg/kg, route intravenous; settings: in vivo
# [8] = Inhibition of GABA transporter at 10 uM by radioligand binding assay
# [9] = system: Rattus norvegicus; test: Cmax in Sprague-Dawley rat at 1 mg/kg, po; assay type: ADME, organism-based; set-up: dose 1 mg/kg, route oral; settings: in vivo
# [10] = target: hERG (KCNH2) (Homo sapiens, UniProt Q12809); test: Inhibition of human ERG in cells at 10 uM by patch clamp assay relative to control; settings: cells expressing human ERG
# hERG (KCNH2), sequence (Q12809 whole entry): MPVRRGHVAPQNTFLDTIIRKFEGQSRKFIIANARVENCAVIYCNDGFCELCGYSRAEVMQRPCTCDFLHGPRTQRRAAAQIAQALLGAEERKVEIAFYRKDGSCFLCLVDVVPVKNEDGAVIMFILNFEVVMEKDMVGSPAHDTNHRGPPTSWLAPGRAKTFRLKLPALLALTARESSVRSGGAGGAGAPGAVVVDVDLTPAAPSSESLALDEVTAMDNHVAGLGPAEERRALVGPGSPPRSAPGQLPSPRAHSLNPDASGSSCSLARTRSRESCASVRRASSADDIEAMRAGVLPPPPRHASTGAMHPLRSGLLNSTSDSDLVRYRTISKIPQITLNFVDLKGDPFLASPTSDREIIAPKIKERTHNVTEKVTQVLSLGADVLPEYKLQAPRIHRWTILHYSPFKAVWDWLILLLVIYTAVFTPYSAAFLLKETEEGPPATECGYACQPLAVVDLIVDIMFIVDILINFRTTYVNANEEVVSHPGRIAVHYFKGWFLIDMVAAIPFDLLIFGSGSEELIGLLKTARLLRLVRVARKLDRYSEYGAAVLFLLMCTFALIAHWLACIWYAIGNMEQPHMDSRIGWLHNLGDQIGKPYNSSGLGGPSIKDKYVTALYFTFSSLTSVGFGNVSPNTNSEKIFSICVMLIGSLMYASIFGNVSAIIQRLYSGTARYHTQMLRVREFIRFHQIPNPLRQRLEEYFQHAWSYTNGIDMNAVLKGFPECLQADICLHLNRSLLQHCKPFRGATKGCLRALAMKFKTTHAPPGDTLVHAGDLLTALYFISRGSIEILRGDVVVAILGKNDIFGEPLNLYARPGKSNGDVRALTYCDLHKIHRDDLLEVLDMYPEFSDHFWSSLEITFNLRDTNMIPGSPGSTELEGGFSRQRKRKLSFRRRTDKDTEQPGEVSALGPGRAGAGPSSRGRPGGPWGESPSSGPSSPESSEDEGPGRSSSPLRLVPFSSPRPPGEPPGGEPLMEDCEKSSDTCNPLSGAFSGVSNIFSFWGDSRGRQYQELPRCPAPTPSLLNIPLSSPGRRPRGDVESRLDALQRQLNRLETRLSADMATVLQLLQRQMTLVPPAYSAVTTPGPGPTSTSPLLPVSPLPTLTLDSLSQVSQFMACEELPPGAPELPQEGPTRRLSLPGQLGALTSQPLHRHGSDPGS
# [11] = system: Rattus norvegicus; test: AUC/dose in Sprague-Dawley rat at 1 mg/kg, po; assay type: ADME, organism-based, Plasma; set-up: dose 1 mg/kg, route oral; settings: in vivo
# [12] = system: PC-12; test: Cytoprotection against SOD1 G93A mutant induced cytotoxicity in rat PC12 cells assessed as reduction of protein aggregates at 10 uM by fluorescent assay in presence of proteasome inhibitor MG132; assay type: functional, cell-based
# [13] = system: Plasma; test: Plasma protein binding in rat at 2 uM; assay type: ADME, cell-free
# [14] = target: Cytochrome P450 2C19 (Homo sapiens, UniProt P33261); test: Inhibition of CYP2C19 in human liver microsomes
# Cytochrome P450 2C19, sequence (P33261 whole entry): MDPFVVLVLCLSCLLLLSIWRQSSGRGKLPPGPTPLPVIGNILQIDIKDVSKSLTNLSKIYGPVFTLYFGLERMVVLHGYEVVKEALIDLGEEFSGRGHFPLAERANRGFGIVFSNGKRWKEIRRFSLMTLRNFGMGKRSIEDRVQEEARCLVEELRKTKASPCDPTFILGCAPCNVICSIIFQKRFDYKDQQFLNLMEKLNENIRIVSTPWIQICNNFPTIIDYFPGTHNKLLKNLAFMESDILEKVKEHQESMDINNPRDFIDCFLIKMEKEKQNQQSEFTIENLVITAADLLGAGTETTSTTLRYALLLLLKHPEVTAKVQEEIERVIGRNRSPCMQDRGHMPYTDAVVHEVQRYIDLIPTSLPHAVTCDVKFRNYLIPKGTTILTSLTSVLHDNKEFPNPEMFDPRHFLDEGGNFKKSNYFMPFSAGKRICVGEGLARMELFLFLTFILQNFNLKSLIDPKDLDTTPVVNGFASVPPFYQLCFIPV
# [15] = system: Rattus norvegicus; test: Half life in Sprague-Dawley rat at 1 mg/kg, po; assay type: ADME, organism-based; set-up: dose 1 mg/kg, route oral; settings: in vivo
# [16] = system: Rattus norvegicus; test: Volume of distribution at steady state in Sprague-Dawley rat at 1 mg/kg, iv; assay type: ADME, organism-based; set-up: dose 1 mg/kg, route intravenous; settings: in vivo
# [17] = system: Rattus norvegicus; test: AUC last in Sprague-Dawley rat at 1 mg/kg, iv; assay type: ADME, organism-based, Plasma; set-up: time 0 - last, dose 1 mg/kg, route intravenous; settings: in vivo
# [18] = system: Rattus norvegicus; test: Tmax in Sprague-Dawley rat at 1 mg/kg, po; assay type: ADME, organism-based; set-up: dose 1 mg/kg, route oral; settings: in vivo
# [19] = system: PC-12; test: Cytoprotection against SOD1 G93A mutant induced cytotoxicity in rat PC12 cells after 24 hrs by fluorescent assay; assay type: functional, cell-based
# [20] = target: Cytochrome P450 3A4 (Homo sapiens, UniProt P08684); test: Inhibition of CYP3A4 in human liver microsomes; assay type: ADME, Microsome
# Cytochrome P450 3A4, sequence (P08684 whole entry): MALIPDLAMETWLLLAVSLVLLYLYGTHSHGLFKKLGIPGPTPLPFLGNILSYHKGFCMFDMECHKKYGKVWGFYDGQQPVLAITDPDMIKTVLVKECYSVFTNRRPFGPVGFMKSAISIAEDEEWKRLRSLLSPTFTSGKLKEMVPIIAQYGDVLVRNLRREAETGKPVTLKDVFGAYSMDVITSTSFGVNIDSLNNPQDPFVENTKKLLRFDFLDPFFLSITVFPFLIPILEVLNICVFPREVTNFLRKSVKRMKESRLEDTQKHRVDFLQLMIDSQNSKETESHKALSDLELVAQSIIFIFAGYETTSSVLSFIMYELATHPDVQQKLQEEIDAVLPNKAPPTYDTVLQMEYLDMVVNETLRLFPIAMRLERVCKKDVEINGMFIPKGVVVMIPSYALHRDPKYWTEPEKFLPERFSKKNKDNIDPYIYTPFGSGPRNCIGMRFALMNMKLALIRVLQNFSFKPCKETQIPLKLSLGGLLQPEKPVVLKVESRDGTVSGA
# [21] = system: Plasma; test: Plasma protein binding in human at 2 uM; assay type: ADME, cell-free
# [22] = system: Rattus norvegicus; test: AUC/dose in Sprague-Dawley rat at 1 mg/kg, iv; assay type: ADME, organism-based, Plasma; set-up: dose 1 mg/kg, route intravenous; settings: in vivo
# [23] = target: Cytochrome P450 2C9 (Homo sapiens, UniProt P11712); test: Inhibition of CYP2C9 in human liver microsomes
# Cytochrome P450 2C9, sequence (P11712 whole entry): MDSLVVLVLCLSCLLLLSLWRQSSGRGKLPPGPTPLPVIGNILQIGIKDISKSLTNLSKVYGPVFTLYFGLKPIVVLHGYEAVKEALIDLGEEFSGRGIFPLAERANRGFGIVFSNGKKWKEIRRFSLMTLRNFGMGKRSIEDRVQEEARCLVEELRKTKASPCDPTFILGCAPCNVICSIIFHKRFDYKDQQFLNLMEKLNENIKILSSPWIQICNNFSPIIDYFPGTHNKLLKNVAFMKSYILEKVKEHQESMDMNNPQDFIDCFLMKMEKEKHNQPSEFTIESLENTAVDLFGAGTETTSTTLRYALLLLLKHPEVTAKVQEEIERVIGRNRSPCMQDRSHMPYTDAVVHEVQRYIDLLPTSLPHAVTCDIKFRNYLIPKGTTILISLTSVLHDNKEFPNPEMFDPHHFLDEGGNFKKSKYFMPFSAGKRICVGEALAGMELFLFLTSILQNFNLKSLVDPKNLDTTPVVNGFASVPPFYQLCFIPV
# [24] = system: Liver microsomes; test: Half life of the compound in human liver microsomes
# [25] = target: T2, Cytochrome P450 1A2 (Homo sapiens, UniProt P05177); test: Inhibition of CYP1A2 in human liver microsomes
# T2 sequence (P05177 whole entry): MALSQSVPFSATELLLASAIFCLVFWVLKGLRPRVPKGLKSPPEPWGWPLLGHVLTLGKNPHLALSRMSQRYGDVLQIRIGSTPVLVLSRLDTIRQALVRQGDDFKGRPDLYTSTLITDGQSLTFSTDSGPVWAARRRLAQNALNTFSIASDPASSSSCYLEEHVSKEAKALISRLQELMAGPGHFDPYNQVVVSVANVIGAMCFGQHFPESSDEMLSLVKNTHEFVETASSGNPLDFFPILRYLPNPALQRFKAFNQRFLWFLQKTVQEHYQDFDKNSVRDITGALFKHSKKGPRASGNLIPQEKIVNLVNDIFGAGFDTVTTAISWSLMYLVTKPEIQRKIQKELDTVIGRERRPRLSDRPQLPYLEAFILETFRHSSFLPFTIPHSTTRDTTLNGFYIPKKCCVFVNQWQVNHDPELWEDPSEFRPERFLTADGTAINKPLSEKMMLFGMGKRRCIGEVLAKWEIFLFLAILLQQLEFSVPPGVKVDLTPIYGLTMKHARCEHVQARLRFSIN
# [26] = Inhibition of sodium channel site 2 at 10 uM by radioligand binding assay
# [27] = system: Liver; test: Half life of the compound in B6SJL mouse liver microsome; settings: microsomes
# [28] = target: Cytochrome P450 2D6 (Homo sapiens, UniProt P10635); test: Inhibition of CYP2D6 in human liver microsomes; assay type: ADME, Microsome
# Cytochrome P450 2D6, sequence (P10635 whole entry): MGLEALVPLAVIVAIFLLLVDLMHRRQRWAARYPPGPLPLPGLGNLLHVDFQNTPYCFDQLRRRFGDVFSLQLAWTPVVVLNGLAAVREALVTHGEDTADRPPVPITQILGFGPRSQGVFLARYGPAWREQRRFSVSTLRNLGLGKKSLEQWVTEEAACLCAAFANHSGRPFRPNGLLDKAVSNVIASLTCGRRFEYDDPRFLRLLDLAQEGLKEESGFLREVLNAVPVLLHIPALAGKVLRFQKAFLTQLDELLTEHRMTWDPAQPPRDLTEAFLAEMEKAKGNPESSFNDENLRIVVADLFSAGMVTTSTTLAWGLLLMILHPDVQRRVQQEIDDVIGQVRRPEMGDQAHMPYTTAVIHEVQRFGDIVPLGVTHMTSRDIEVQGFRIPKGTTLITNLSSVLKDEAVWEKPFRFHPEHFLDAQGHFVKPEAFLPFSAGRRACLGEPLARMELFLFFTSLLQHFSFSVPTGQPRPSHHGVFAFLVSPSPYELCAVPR
# [29] = system: Plasma; test: Half life in B6SJL mouse plasma by LC-MS/MS analysis
smiles,measurement,setting,value
CC(C)OCCN1C(=O)CC(=O)N(CCc2ccc(F)cc2)C1=O,EC50,[1],2.97 µM
O=C1CC(=O)N(CCc2cccs2)C(=O)N1CCc1cccs1,EC50,[1],2.16 µM
O=C1CC(=O)N(C2CCCCC2)C(=O)N1,EC50,[1],> 32 µM
CC1(C)C(=O)N(CCc2ccccc2)C(=O)N(CCc2ccccc2)C1=O,EC50,[1],> 32 µM
CCCCCCCCN1C(=O)CC(=O)N(CCc2ccccc2)C1=O,EC50,[1],0.71 µM
CC(C)(C)CCN1C(=O)CC(=O)N(CCC(C)(C)C)C1=O,EC50,[1],2.03 µM
O=C1CC(=O)N(CCc2cccc(Cl)c2)C(=O)N1CCc1cccc(Cl)c1,EC50,[1],2.97 µM
O=C1C(=O)N(CCc2ccccc2)C(=O)N1CCc1ccccc1,EC50,[1],> 32 µM
O=C1CC(=O)N(CC(c2ccccc2)c2ccccc2)C(=O)N1CCCCc1ccccc1,EC50,[1],3.61 µM
COc1ccc(CCN2C(=O)CC(=O)N(CCc3ccc(OC)cc3)C2=O)cc1,EC50,[1],3.36 µM
O=C1CC(=O)N(CCOc2ccccc2)C(=O)N1CCOc1ccccc1,EC50,[1],3.26 µM
O=C1C(=Cc2ccc[nH]2)C(=O)N(CCc2ccccc2)C(=O)N1CCc1ccccc1,EC50,[1],3.55 µM
O=C1C(=Cc2ccc(OCc3ccccc3)cc2)C(=O)N(CCc2ccccc2)C(=O)N1CCc1ccccc1,EC50,[1],2.84 µM
O=C1CC(=O)N(CCc2ccccc2F)C(=O)N1CCc1ccccc1F,EC50,[1],3.29 µM
O=C1CC(=O)N(CCc2ccccc2)C(=O)N1CCc1ccccc1,EC50,[1],1.68 µM
same,Activity,[2],Dose-dependent effect
same,F,[3],98%
same,inhibition,[4],20%
same,Papp,[5],26 ×10⁻⁶ cm/s
same,inhibition,[6],41%
same,t1/2,[7],57 min
same,inhibition,[8],19%
same,Cmax,[9],55 ng/mL
same,inhibition at 10 µM,[10],4.9%
same,AUC/dose,[11],124 ng·h/mL
same,Activity,[12],Active
same,PPB,[13],95%
same,IC50,[14],> 50 µM
same,t1/2,[15],84 min
same,Vdss,[16],9 L/kg
same,AUClast,[17],121 ng·h/mL
same,Tmax,[18],45 min
same,Activity,[19],Dose-dependent effect
same,IC50,[20],> 50 µM
same,PPB,[21],90%
same,AUC/dose,[22],126 ng·h/mL
same,IC50,[23],> 50 µM
same,t1/2,[24],61 min
same,IC50,[25],> 50 µM
same,inhibition,[26],21%
same,t1/2,[27],39 min
same,IC50,[28],> 50 µM
same,t1/2,[29],60.5 min
O=C1CC(=O)N(CCc2ccc(F)cc2)C(=O)N1CCOc1ccccc1,EC50,[1],1.32 µM
Cc1ccccc1C=C1C(=O)N(CCc2ccccc2)C(=O)N(CCc2ccccc2)C1=O,EC50,[1],2.23 µM
COc1ccc(CCN2C(=O)CC(=O)N(CCc3ccccc3)C2=O)cc1,EC50,[1],2.94 µM
O=C1NC(=O)N(C2CCCCC2)C1=O,EC50,[1],> 32 µM
O=C1CC(=O)N(CCc2ccc(Cl)cc2Cl)C(=O)N1CCc1ccc(Cl)cc1Cl,EC50,[1],1.87 µM
COc1ccc(C=C2C(=O)N(C3CCCCC3)C(=O)N(C3CCCCC3)C2=O)c(OC)c1,EC50,[1],2.58 µM
O=C1CC(=O)N(CCC(c2ccccc2)c2ccccc2)C(=O)N1CCC(c1ccccc1)c1ccccc1,EC50,[1],1.39 µM
O=C1CCC(=O)N(CCc2ccccc2)C(=O)N1CCc1ccccc1,EC50,[1],> 32 µM
O=C1CC(=O)N(CCc2ccccc2)C(=O)N1CCC1=CCCCC1,EC50,[1],1.74 µM
O=C1CC(=O)N(Cc2ccccc2)C(=O)N1Cc1ccccc1,EC50,[1],4.58 µM
